The results in this text go back to ChEMBL document CHEMBL5715954, “Silencing c-Myc translation as a therapeutic strategy through targeting PI3Kδ and CK1ε in hematological malignancies” (Blood, 2017).

The structures appear in SMILES notation.

Holding throughout (design): scale not given: the % may be the effect or the level left
The target in experiment [1] is Tyrosine-protein kinase Blk (Homo sapiens) (UniProt P51451). The experiment in a line: Inhibition of human BLK assessed as enzyme activity at 1 uM using poly[Glu:Tyr] (4:1) as substrate preincubated for 20 mins followed by [gamma-33P]-ATP addition and measured after 120 mins by radiometric Hot-SpotSM Kinase assay relative to control.
Experiment [2] concerns the target CDK1/Cyclin E (Homo sapiens) (UniProt P06493+P24864). Briefly: Inhibition of human CDK1/cyclin E assessed as enzyme activity at 1 uM using RB Protein as substrate preincubated for 20 mins followed by [gamma-33P]-ATP addition and measured after 120 mins by radiometric Hot-SpotSM Kinase assay relative to control. The experiment is classed as protein-complex assay.

Experiment [3] concerns the target T1, Serine/threonine-protein kinase 17A (Homo sapiens) (UniProt Q9UEE5).
T1 sequence (whole entry): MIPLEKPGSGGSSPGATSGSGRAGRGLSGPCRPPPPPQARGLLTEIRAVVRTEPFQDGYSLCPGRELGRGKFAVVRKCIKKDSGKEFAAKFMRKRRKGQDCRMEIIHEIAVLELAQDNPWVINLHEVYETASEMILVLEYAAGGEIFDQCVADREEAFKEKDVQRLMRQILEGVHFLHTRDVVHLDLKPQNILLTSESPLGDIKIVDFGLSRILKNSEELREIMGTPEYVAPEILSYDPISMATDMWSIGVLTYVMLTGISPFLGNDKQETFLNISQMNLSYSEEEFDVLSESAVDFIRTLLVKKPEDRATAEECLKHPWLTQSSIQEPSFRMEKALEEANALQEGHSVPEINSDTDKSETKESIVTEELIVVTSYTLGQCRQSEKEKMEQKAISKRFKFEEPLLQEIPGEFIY
Briefly: Inhibition of human DRAK1/STK17A assessed as enzyme activity at 1 uM using KKLNRTLSFAEPG as substrate preincubated for 20 mins followed by [gamma-33P]-ATP addition and measured after 120 mins by radiometric Hot-SpotSM Kinase assay relative to control.

In experiment [4] the target is Tyrosine-protein kinase JAK1 (Homo sapiens) (UniProt P23458). The experiment in a line: Inhibition of human JAK1 assessed as enzyme activity at 1 uM using poly[Glu:Tyr] (4:1) as substrate preincubated for 20 mins followed by [gamma-33P]-ATP addition and measured after 120 mins by radiometric Hot-SpotSM Kinase assay relative to control.
Experiment [5] addresses T2, Serine/threonine-protein kinase LATS2 (Homo sapiens) (UniProt Q9NRM7).
T2 sequence (whole entry): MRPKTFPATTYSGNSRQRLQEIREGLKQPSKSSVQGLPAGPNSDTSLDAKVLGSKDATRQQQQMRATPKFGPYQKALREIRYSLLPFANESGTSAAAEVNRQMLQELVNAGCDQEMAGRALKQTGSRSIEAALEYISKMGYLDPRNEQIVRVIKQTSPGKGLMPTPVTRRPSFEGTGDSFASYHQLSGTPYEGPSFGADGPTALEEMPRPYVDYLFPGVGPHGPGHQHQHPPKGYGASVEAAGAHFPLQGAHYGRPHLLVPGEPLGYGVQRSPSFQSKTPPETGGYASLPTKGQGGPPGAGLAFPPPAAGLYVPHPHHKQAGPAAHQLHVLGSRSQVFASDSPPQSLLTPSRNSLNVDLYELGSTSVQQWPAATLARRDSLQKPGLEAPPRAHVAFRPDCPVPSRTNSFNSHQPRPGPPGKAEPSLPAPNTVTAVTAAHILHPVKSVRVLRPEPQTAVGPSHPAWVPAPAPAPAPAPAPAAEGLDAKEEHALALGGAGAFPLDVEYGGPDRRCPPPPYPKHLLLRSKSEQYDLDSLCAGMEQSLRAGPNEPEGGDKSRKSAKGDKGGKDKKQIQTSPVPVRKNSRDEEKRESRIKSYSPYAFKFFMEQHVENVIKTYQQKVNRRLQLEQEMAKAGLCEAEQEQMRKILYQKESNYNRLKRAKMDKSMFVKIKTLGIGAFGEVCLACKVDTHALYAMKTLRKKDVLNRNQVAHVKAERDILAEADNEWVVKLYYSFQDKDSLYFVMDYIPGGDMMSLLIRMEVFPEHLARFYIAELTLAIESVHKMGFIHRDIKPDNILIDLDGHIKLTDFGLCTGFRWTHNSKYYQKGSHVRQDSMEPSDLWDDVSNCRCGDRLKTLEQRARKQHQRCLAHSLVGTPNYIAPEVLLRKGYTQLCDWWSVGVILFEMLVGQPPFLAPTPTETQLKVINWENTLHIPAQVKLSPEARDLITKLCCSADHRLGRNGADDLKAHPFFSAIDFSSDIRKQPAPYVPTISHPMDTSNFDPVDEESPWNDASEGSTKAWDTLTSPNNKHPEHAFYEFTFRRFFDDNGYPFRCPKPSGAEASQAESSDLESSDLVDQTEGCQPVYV
Briefly: Inhibition of human LATS2 assessed as enzyme activity at 1 uM using KKRNRRLSVA as substrate preincubated for 20 mins followed by [gamma-33P]-ATP addition and measured after 120 mins by radiometric Hot-SpotSM Kinase assay relative to control.

Experiment [6] concerns the target MAP kinase-activated protein kinase 3 (Homo sapiens) (UniProt Q16644). Briefly: Inhibition of human MAPKAPK3 assessed as enzyme activity at 1 uM using KKLNRTLSVA as substrate preincubated for 20 mins followed by [gamma-33P]-ATP addition and measured after 120 mins by radiometric Hot-SpotSM Kinase assay relative to control.
For experiment [7], the target named is T3, Protein kinase C iota type (Homo sapiens) (UniProt P41743).
T3 sequence (whole entry): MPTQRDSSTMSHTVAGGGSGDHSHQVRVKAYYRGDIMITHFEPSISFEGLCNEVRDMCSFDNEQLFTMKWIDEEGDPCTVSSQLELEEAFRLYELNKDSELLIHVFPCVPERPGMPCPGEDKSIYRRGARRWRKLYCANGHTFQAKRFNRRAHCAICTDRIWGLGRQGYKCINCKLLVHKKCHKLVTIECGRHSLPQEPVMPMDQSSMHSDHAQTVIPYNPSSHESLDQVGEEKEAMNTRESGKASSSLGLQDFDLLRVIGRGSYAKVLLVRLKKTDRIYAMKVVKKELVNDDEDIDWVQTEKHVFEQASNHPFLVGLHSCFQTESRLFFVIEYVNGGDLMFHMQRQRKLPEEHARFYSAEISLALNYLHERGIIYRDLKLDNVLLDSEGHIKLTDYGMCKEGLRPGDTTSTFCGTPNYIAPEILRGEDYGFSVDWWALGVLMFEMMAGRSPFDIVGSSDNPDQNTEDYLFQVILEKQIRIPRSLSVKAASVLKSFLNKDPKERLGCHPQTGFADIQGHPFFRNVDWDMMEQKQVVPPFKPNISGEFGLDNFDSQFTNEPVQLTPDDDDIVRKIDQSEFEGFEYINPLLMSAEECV
Briefly: Inhibition of human PKCiota assessed as enzyme activity at 1 uM using ERMRPRKRQGSVRRRV as substrate preincubated for 20 mins followed by [gamma-33P]-ATP addition and measured after 120 mins by radiometric Hot-SpotSM Kinase assay relative to control.

Tyrosine-protein kinase Blk (Homo sapiens), sequence (P51451 2-505 limits assumed): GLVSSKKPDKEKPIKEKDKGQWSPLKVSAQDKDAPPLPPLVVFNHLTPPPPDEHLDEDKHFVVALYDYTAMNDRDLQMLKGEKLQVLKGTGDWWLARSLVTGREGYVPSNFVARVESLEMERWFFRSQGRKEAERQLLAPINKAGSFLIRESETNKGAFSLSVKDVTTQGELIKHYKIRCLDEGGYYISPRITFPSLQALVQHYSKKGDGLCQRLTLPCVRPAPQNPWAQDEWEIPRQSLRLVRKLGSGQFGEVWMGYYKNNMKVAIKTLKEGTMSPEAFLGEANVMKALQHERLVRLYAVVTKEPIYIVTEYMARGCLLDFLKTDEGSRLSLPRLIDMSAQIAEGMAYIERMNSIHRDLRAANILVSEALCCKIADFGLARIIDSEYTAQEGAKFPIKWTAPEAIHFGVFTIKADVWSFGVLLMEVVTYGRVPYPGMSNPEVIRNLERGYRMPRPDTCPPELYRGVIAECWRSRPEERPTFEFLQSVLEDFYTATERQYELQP
CDK1/Cyclin E (Homo sapiens), sequence (P06493 whole entry, looked up): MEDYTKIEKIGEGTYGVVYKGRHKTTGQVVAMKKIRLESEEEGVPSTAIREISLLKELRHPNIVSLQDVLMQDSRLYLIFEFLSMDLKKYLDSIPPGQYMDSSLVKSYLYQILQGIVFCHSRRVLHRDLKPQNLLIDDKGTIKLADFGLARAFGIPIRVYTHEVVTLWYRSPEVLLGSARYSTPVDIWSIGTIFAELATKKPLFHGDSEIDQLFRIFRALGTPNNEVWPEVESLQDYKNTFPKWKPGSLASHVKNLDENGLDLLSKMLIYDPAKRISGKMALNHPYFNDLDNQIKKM
CDK1/Cyclin E (Homo sapiens), sequence (P24864 whole entry, looked up): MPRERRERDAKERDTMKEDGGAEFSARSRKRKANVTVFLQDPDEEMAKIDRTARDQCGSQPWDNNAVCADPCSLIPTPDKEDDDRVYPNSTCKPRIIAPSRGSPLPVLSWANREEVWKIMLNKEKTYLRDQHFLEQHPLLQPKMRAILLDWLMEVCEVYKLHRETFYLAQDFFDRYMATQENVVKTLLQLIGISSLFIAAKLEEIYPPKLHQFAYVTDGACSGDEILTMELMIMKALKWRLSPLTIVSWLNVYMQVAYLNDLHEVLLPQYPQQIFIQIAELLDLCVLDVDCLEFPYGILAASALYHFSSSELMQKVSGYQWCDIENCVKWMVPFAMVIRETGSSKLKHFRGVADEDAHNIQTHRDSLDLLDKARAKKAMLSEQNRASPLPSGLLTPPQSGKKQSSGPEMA
Tyrosine-protein kinase JAK1 (Homo sapiens), sequence (P23458 whole entry): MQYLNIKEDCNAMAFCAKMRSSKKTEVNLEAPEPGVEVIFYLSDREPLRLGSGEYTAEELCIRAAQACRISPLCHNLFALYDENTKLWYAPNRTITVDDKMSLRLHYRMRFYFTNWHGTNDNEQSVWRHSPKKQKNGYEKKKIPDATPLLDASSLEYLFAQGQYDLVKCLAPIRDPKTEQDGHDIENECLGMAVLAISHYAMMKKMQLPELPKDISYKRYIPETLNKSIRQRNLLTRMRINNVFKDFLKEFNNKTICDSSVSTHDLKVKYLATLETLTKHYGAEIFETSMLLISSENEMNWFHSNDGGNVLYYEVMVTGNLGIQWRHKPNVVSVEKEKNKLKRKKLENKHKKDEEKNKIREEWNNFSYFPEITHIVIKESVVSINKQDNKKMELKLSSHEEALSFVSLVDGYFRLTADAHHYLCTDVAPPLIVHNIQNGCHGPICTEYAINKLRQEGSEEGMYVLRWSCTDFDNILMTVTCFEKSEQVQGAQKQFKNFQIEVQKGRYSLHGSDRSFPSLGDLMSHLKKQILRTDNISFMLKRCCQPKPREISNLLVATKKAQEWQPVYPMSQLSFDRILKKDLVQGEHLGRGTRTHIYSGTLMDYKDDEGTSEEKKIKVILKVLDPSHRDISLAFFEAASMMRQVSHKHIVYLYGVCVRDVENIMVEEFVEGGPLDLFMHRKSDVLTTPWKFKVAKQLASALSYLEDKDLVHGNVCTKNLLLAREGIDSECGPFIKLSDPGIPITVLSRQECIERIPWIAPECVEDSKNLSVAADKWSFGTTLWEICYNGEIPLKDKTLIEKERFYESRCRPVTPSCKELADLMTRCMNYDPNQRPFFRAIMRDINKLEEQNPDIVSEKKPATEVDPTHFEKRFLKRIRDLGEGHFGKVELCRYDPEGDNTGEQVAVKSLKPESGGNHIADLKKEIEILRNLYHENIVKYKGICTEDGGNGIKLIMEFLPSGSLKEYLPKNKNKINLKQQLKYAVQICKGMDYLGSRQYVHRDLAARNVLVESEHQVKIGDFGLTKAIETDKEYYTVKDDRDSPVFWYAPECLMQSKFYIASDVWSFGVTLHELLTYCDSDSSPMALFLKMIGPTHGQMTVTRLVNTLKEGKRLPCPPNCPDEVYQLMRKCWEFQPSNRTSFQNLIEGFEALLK
MAP kinase-activated protein kinase 3 (Homo sapiens), sequence (Q16644 whole entry, looked up): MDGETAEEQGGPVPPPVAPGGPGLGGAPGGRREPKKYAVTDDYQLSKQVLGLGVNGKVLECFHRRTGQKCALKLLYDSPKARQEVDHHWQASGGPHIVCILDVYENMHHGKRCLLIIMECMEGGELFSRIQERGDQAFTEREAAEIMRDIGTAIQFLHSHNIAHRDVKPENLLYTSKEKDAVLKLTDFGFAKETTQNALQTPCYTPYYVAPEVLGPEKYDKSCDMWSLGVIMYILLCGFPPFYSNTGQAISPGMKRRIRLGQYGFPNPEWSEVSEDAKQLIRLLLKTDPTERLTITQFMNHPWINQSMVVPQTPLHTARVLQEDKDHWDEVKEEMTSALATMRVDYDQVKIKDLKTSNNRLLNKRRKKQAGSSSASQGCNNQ

Regarding `C[C@H](Nc1ncnc2nc[nH]c12)c1cc2cccc(Cl)c2c(=O)n1-c1ccccc1`, the Activity stood at 96.9% in experiment [1]; 91.5% in experiment [2]; 95.4% in experiment [3]; 84.6% in experiment [4]; 91.9% in experiment [5]; 95.8% in experiment [6]. In experiment [7], the Activity is 98.2%.

On to `CC[C@H](Nc1ncnc2[nH]cnc12)c1nc2cccc(F)c2c(=O)n1-c1ccccc1`, for which the Activity amounted to 97.6% in experiment [1]; 88.5% in experiment [2]; 95.1% in experiment [3]; 85.6% in experiment [4]; 91.5% in experiment [5]; 97.3% in experiment [6]. For the same compound, the Activity in experiment [7] was determined as 94%.

Turning to `CC(C)Oc1ccc(-c2nn([C@@H](C)c3oc4ccc(F)cc4c(=O)c3-c3cccc(F)c3)c3ncnc(N)c23)cc1F` [UMBRALISIB], the Activity in experiment [1] was found to be 99.7%; in experiment [2], 86%; in experiment [3] it was 92.4%; in experiment [4] it was 83.4%; in experiment [5], 103%; in experiment [6], 90.6%. Besides, the Activity in experiment [7] came out at 95.7%.
